Tests used:
C57BL/6J mice [1] = experiment: Hot water tail immersion test, compound alone (intrinsic antinociception); format: in vivo; settings: for dose at which significant increase in latency was achieved / dose at which significant latency increases were achieved: i.p.; for effect on tail flick latency vs vehicle / mean latency increase: i.p. 30 min prior to test; for effect on tail flick latency vs vehicle: n = 8 per group; for dose at which significant latency increases were achieved: lowest significant dose
Excerpt: After evaluating EU93-108 in vitro, we next evaluated a panel of GluN2B inhibitors for their ability to produce an antinociceptive effect using a classical model of pain perception, determination of tail flick latency for mice when their tails are placed in hot water (Figures 4 and 5). The hot water tail immersion test is a well-validated method of assessing reflexive (i.e., spinal) pain-like response in rodents.[80]−[83] We interpret a drug-induced increase in tail flick latency as analgesia.
The inhibitors were injected i.p. 30 min prior to a hot water tail immersion test. Four treatment groups and one control group were used (n = 8 per group) where the control group received vehicle (10% DMSO, 20% PEG, 2% DMA in water) and groups 1 through 4 were randomly assigned one dose of the appropriate compound.
All animal studies performed at Emory have been approved by the Institutional Animal Care and Use Committee at Emory University. Male and female C57BL/6J mice weighing between 20 and 30 g were housed five per cage and given ad libitum access to food and water. The mice were 8–10 weeks of age at the time of experimentation. Animal holding rooms operated on a 12 h dark/light cycle with the dark cycle from 7:00 pm to 7:00 am. Mice were allowed to acclimate in cages for one week after arrival. The mice were handled regularly and habituated to scruffing and cloth restraint for 3–5 days prior to experimentation.
Mouse weights were recorded on the day of each experiment. Mice were given the appropriate treatment(s) 30 min prior to testing. All injection volumes were 10 mL/kg (e.g., 350 μL for a 35 g mouse). For the tail immersion experiments, each mouse was restrained with a Wypall cloth, leaving the tail exposed. The distal two-thirds of the tail was lowered into a sous vide water bath set to 48 °C, and a stopwatch with a resolution of 0.01 s was used to record the time elapsed between immersion and tail flick. Three recordings were taken for each mouse, and each data point is expressed as the mean of the three recordings. A cut-off time of 25 s was implemented to prevent tissue damage or scarring. For each experiment, the identities of the doses were coded by an independent researcher to ensure blinding. The identities were not decoded until the data were analyzed.
(§1) Prism 9.3.1 software (GraphPad, San Diego, CA) was used for all data analysis and visualization. Data for intrinsic antinociception was analyzed using one-way ANOVA and Dunnett’s post hoc test for multiple comparisons where each group was compared to vehicle. Data for acute morphine potentiation experiments were analyzed using one-way ANOVA and Tukey’s post hoc test for multiple comparisons was also used, where each group mean was compared to the mean of every other group. Data for tolerance experiments were analyzed using repeated measures two-way ANOVA and Bonferroni post hoc analysis. Data are presented as mean ± SEM and p < 0.05 constitutes significance.

C57BL/6J mice [2] = experiment: Preestablished morphine tolerance (tolerant mice, tail immersion test); format: in vivo; settings: co-administered with morphine; males 10 mg/kg, females 20 mg/kg i.p.
Excerpt: We next wanted to assess EU93-108 for effects on other facets of tolerance. Specifically, we were interested in whether EU93-108 could increase tail flick latency in mice that were already tolerant to morphine (i.e., preestablished tolerance). To assess the effect of EU93-108 on preestablished tolerance, five groups were used (n = 8 per group): vehicle/saline, vehicle/morphine, ifenprodil/morphine, EU93-108/saline, and EU93-108/morphine. All groups except for the vehicle/saline control group were administered morphine three times per day (according to the stair stepping protocol outlined in Figure 11) at gradually increasing doses from 25 to 40 mg/kg three times a day at 3–4 h intervals for three consecutive days until tolerance was observed on day 4 (Figure 12, black circles).
Figure 11 Dosing regimen to assess effects of EU93-108 on tolerant mice. TIT = tail immersion test. All mice received morphine or saline three times a day according to the protocol in Figure 9. Doses of morphine are shown above the arrows, in mg/kg. Once tolerance was established on day 4, the mice were randomly assigned to receive vehicle, EU93-108, or ifenprodil once a day for two consecutive days. […]
Mouse weights were recorded on the day of each experiment. […] Three recordings were taken for each mouse, and each data point is expressed as the mean of the three recordings. […] The identities were not decoded until the data were analyzed.
as §1, with “Data are presented as mean ± SEM and p < 0.05 constitutes significance.” left out

| Structure (SMILES) | dose at which significant increase in latency was achieved (C57BL/6J mice [1]; female mice) [mg/kg] | effect on tail flick latency vs vehicle (C57BL/6J mice [1]; female mice) | mean latency increase (C57BL/6J mice [1]; male mice) [s] | effect on tail flick latency vs vehicle (C57BL/6J mice [1]; male mice) | dose at which significant latency increases were achieved (C57BL/6J mice [1]; male mice) [mg/kg] | ED50 (C57BL/6J mice [1]; Mus musculus, sc, 0.5 h, read-out: ED50 (tail flick latency), morphine dose-response curve) [mg/kg] | tail flick latency in morphine-tolerant mice, day 5 vs day 4 (C57BL/6J mice [2]) |
| --- | --- | --- | --- | --- | --- | --- | --- |
| CS(=O)(=O)Nc1ccc(OC[C@@H](O)CNCCc2ccc(Cl)c(Cl)c2)cc1 [EU93-4] | 50 | significant increases in latency at the highest doses tested | 10 | significant increases in tail flick latency at 50 mg/kg | 50 |  |  |
| CCCCN(CCc1ccc(Cl)c(Cl)c1)C[C@H](O)COc1ccc(NS(C)(=O)=O)cc1 [EU93-31] | 100 | significant increases in latency at the highest doses tested | 10 | significant increases in latency at the two highest doses tested (50 and 100 mg/kg) | 50 |  |  |
| CN1CC[C@]23c4c5ccc(O)c4O[C@H]2[C@@H](O)C=C[C@H]3[C@H]1C5 [Morphine] |  |  |  |  |  | 5.15 |  |
| C[C@H](CN1CCC(Cc2ccccc2)CC1)[C@H](O)c1ccc(O)cc1 [Ro25-6981, reference compound] |  | did not produce any significant increases in latency at the doses tested |  | did not display significant increases in latency at the doses tested |  |  |  |
| CC(C(O)c1ccc(O)cc1)N1CCC(Cc2ccccc2)CC1 (stereo not shown) [ifenprodil, reference compound] |  | did not produce any significant increases in latency at the doses tested |  | did not display significant increases in latency at the doses tested |  |  | continued to decrease on day 5 |

— paper PMC9983021, “Novel GluN2B-Selective NMDA Receptor Negative Allosteric Modulator Possesses Intrinsic Analgesic Properties and Enhances Analgesia of Morphine in a Rodent Tail Flick Pain Model” (ACS Chemical Neuroscience, 2023)
